Assay results as given in ChEMBL document CHEMBL3272116, “Synthesis and evaluation of brain catecholamine depletion by N-alkyl derivatives of 6-aminodopamine” (1976).

How the values were obtained:
Mus musculus [1] = test: Depletion of norepinephrine in mouse brain at 50 ug administered intracranially at 24 hrs interval on three successive days measured 24 hrs post last dose relative to control; type: functional
Mus musculus [2] = test: Depletion of dopamine in mouse brain at 50 ug administered intracranially at 24 hrs interval on three successive days measured 24 hrs post last dose relative to control; type: functional

SMILES | Activity (Mus musculus [1]) [%] | Activity (Mus musculus [2]) [%]
CC(C)NCCc1cc(O)c(O)cc1N | 81 | 
CN(C)CCc1cc(O)c(O)cc1N | 88 | 94
Br.CNCCc1cc(O)c(O)cc1N | 66 | 
NCCc1cc(O)c(O)cc1N | 34 | 106
